Laboratory results as given in patent US8148371B2, “Adenine compound and use thereof” (Dainippon Sumitomo Pharma Co., Ltd., priority 2002, dated 2012).
Where two headings read alike, the source gives them in different places. Marks after values point to notes of the source that are not given here.

How the values were obtained:
[1] = Metabolic stability on liver S9 of rat; conditions: 37° C.
Protocol: The compound of the present invention is added to liver S9 solution, and the mixture is incubated at 37±0.5° C. for 5 minutes to 2 hours. By quantitatively analyzing at the definite interval the amount of the compound of the present invention remaining in the liver S9 solution with HPLC (high performance liquid chromatography), etc., the constant of quenching velocity is calculated and the half life is calculated.
The reaction on river S9 of a rat was carried out on a 96-well plate by using a robot for screening by Tecan Company. S9 solution was prepared by adding to 10 ml of liver S9 of a rat, 20 ml of 250 mM Kpi (pH 7.4) and 20 ml of deionized water. Cofactor solution was prepared by dissolving NADPH (220 mg) in deionized water (40.5 ml) to give finally a 6 mM solution. IS (Internal Standard) solution was prepared by adding 300 μL of IS solution (1 mM DMSO solution) to 30 ml of acetonitrile solution (100 times dilution). The test compound (1 μM DMSO solution) was dissolved in an incubator at 37° C., 35 μL of it was poured into each well of a 96-well plate (24 samples/plate and then, plates (a sample plate, a 96 well-plate for dilution, deep well plates for reaction and recovering, a plate for extraction of the solid phase) and the test samples (S9 solution, Cofactor solution, IS (Internal Standard) solution, Stop solution, acetonitrile for elution) were set to the specified position in the booth of the robot. The reaction started (the concentration of the test compound was 1 μM) and the mixture was incubated at 37° C. under stirring. The solid phase was extracted and at the same time the internal standard for analysis was added. To the recovered sample (200 μL/well) was added 50 μL of acetonitrile per each well and to 2 plates of FALCON Deep well were poured 100 μL of the solution per well. By subjecting to the LC/MS analysis, the chromatogram of the test sample and the internal standard were described and the peak area was calculated. And then, the stability (residual rate after reaction) was calculated by the internal standard method.

cells of mouse spleen = assay: cells; assay type: cell-based, C3H/HeJ mouse; conditions: for minimal effective concentration: Mus musculus, 24 h, read-out: Minimum effective concentration (interferon inducing activity)
plasma esterase = conditions: rat plasma, 37° C., 15 minutes
Protocol: The compound of the present invention is added to the serum solution, and the mixture is incubated at 37±0.5° C. for 5 minutes to 2 hours. By quantitatively analyzing at the definite interval the amount of the compound of the present invention remaining in the serum solution with HPLC (high performance liquid chromatography), etc., the constant of quenching velocity calculated and the half life is calculated.
The serum herein means the supernatant fraction obtained by excluding hemocytes and blood coagulation factor from blood by centrifugation, etc. The serum diluted with buffer, etc. can be used.
The metabolic stability of the test compound was presented by the residual amount (%) per the concentration of pre-metabolization.

cells of rat spleen = assay: cells; assay type: cell-based, SD rat; conditions: 24 h, read-out: Minimum effective concentration (interferon inducing activity)
leucocytes in BALF = assay: Amount of leucocytes in bronchoalveolar lavage fluid (BALF) on an asthma modeled mouse; assay type: in vivo, C57BL/6 mouse; conditions: 10 mg/kg nasally, BALF 18 hours after ovalbumin challenge
Protocol: (§1) C57BL/6 mouse was immunized by dermally administering denatured ovalbumin by heating (40 mg). Fourteen days later after the first immunization, ovalbumin (100 μg) was nasally busted. Twenty one days later after the first immunization, the solution (1 ml/kg) prepared by suspending the test compound (10 mg/kg) in physiological saline was nasally administered (10 μl/10 g/body weight). After 2 hours ovalbumin (100 μg) was nasally challenged. After 18 hours, bronchoalveolar lavege fluid (BALF) was collected, and the total number of leucocytes in BALF and fractioned leukocyte in the cytospin sample were measured. By ELISA method, IL-4 and IL-5 in the supernatant were measured. The number of leucocytes (inhibition %) was shown in Table 5 and the production inhibition activity of IL-4 and IL-5 (inhibition % to control) was shown in Table 6.

IL-5 = IL-5 in BALF supernatant on an asthma modeled mouse (ELISA); assay type: in vivo, C57BL/6 mouse; conditions: 10 mg/kg nasally
Protocol: as §1

IL-4 = IL-4 in BALF supernatant on an asthma modeled mouse (ELISA); assay type: in vivo, C57BL/6 mouse; conditions: 10 mg/kg nasally
Protocol: as §1

[2] = system: type 2 herpes virus (HSV-2); assay: Anti HSV activity in mouse infected with HSV-2 in its vagina; assay type: in vivo, BALB/c female mouse; conditions: 9 days after virus-infection
Protocol: Compound A was spread to a vagina of a female mouse (BALB/c) to which previously Depo-Provera was administered, and on next day, HSV-2 was infected to the vagina. Nine days later, the rate of survival or death of mice was observed and compared.
On the back of a BALB/c female mouse (6 weeks old: Nippon SLC) 3 mg of Depo-Provera/mouse (Registered Trade Mark) was dermally administered and the mice were fed for 6 days. By doing this the sexual cycle was tuned and the sensitivity between mice to herpes virus was balanced. The slime of mouse vagina was removed by a cotton swab for baby, and the ointment (20 mg) containing 0.5% of compound of Example 20 or the ointment (10 mg) containing 5% of compound of Example 20 was spread to the vagina (corresponding 0.1 mg and 0.5 mg per mouse of the compound of Example). As a control, the placebo ointment not containing the compound was spread as well. As the ointment, the base consisting of 80% Vaseline and 20% liquid paraffin were used. On the next day, the slime of mouse vagina was removed by a cotton swab for baby and then, 2×10^4 pfu type 2 herpes virus (HSV-2)(10 μl/mouse) was administered to the vagina by pipette. After infection the death or survival of the mice was observed.

[3] = rat liver S9, test compound 1 μM

SMILES | minimal effective concentration (cells of mouse spleen) | Residual rate (plasma esterase; test compound 10 μM) | minimal effective concentration (cells of rat spleen) | Residual rate [1, 3] | other results
COC(=O)OCCNc1nc(N)c2nc(O)n(Cc3ccc(C)nc3)c2n1 [Example 34, 8-Hydroxy-2-(2-methoxycarbonyloxyethylamino)-9-{(6-methyl-3-pyridyl)methyl}adenine] | 0.1 µM | 11% |  |  | Residual rate ([1]; rat liver S9, test compound 10 μM (*)): 1* %
CCCCOc1nc(N)c2[nH]c(=O)n(Cc3cccc(C(=O)OC)c3)c2n1 [Example 1, 2-Butoxy-8-hydroxy-9-(3-methoxycarbonylbenzyl)adenine] | < 0.001 µM | 32% | 0.0003 µM | 7% | 
CCCCOc1nc(N)c2nc(O)n(Cc3ccc(C(=O)OC(C)C)o3)c2n1 [Example 16, 2-Butoxy-8-hydroxy-9-(5-isopropoxycarbonylfurfuryl)adenine] | 0.003 µM | 0% |  | 0% | 
CCOC(=O)C(C)Sc1nc(N)c2nc(O)n(Cc3ccccc3)c2n1 (centres unmarked) [Example 53, 9-Benzyl-8-hydroxy-2-(1-ethoxycarbonylethyl)thioadenine] | 0.1 µM | 0% |  | 2% | 
CCCCOc1nc(N)c2nc(O)n(Cc3ccc(C(=O)OC)o3)c2n1 [Example 15, 2-Butoxy-8-hydroxy-9-(5-methoxycarbonylfurfuryl)adenine] | 0.003 µM | 0% | 0.001 µM | 11% | Acidophile (inhibition %) (leucocytes in BALF): 101%; Netrophile (inhibition %) (leucocytes in BALF): −92%; Number of total leukocyte (inhibition %) (leucocytes in BALF): 84%; IL-5 production inhibition activity (inhibition % to control) (IL-5): 75%; IL-4 production inhibition activity (inhibition % to control) (IL-4): 80%
CCCCOc1nc(N)c2nc(O)n(Cc3ccc(N4CCC(C(=O)OCC)CC4)nc3)c2n1 [Example 24, 2-Butoxy-8-hydroxy-9-{6-(4-ethoxycarbonyl-1-piperidyl)-3-pyridylmethyl}adenine] | < 0.001 µM | 7% | 0.0003 µM |  | 
CCOC(=O)Cc1nc(N)c2nc(O)n(Cc3ccccc3)c2n1 [Example 30, 9-Benzyl-2-ethoxycarbonylmethyl-8-hydroxyadenine] | 0.01 µM | 0% | 0.01 µM | 4% | 
Nc1nc(SC2CCOC2=O)nc2c1nc(O)n2Cc1ccccc1 (centres unmarked) [Example 59, 9-Benzyl-2-(2-butyrolactino)thio-8-hydroxyadenine] |  | 0% |  | 7% | Minimum effective concentration (interferon inducing activity) (cells of mouse spleen): 0.1 µM
Nc1nc(SCC(=O)OCC(F)(F)F)nc2c1nc(O)n2Cc1ccccc1 [Example 48, 9-Benzyl-2-(2,2,2-trifluoroethoxycarbonylmetyl)thio-8-hydroxyadenine] |  | 0% |  | 0% | Minimum effective concentration (interferon inducing activity) (cells of mouse spleen): 0.3 µM
CCCCOc1nc(N)c2nc(O)n(Cc3ccc(CC(=O)OC(C)C)cc3)c2n1 [Example 21, 2-Butoxy-8-hydroxy-9-(4-isopropoxycarbonylmethylbenzyl)adenine] | 0.003 µM |  | 0.001 µM | 26% | Residual rate (plasma esterase; test compound 1 μM (*)): 0* %
COC(=O)CCSc1nc(N)c2nc(O)n(Cc3ccccc3)c2n1 [Example 54, 9-Benzyl-8-hydroxy-2-(2-methoxycarbonylethyl)thioadenine] | 0.1 µM | 0% | 0.01 µM |  | 
COC(=O)CSc1nc(N)c2nc(O)n(Cc3ccccc3)c2n1 [Example 40, 9-Benzyl-8-hydroxy-2-(methoxycarbonylmethyl)thioadenine] | 0.01 µM | 0% | 0.01 µM |  | 
CCC(=O)OCC(=O)[C@@]1(OC(=O)CC)[C@@H](C)C[C@H]2[C@@H]3CCC4=CC(=O)C=C[C@]4(C)[C@@]3(Cl)[C@@H](O)C[C@@]21C [Beclometasone dipropionate] |  |  |  |  | Acidophile (inhibition %) (leucocytes in BALF): 89%; Netrophile (inhibition %) (leucocytes in BALF): 90%; Number of total leukocyte (inhibition %) (leucocytes in BALF): 92%; IL-5 production inhibition activity (inhibition % to control) (IL-5): 100%; IL-4 production inhibition activity (inhibition % to control) (IL-4): 97%
COC(=O)Cc1nc(N)c2nc(O)n(Cc3ccccc3)c2n1 [Example 29, 9-Benzyl-8-hydroxy-2-methoxycarbonylmethyladenine] | 0.01 µM | 0% | 0.01 µM |  | 
CCCCOc1nc(N)c2nc(O)n(Cc3ccc(CC(=O)OC)cc3)c2n1 [Example 20, 2-Butoxy-8-hydroxy-9-(4-methoxycarbonylmethylbenzyl)adenine] | 0.003 µM | 0% | 0.0001 µM | 0% | survived rate ([2]; 5% ointment (0.5 mg per mouse) spread to vagina): 100%; survived rate comparing with a control group ([2]; ointments containing 0.5% and 5%): clearly higher survived rate
